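Test compounds were applied to cells in 96-well plates for 48 hours at 5 doses. The concentration for 50% growth inhibition is given as GI50. At the TGI there is no net growth.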
Columns and labels:
Experiment in all cases: inhibition of tumour cell growth, NCI panel, 48 h
SF-295 CNS = tested on: SF-295 CNS
RPMI-8226 leukemia = tested on: RPMI-8226 leukemia
SNB-75 CNS = tested on: SNB-75 CNS
SK-MEL-28 melanoma = tested on: SK-MEL-28 melanoma
CCRF-CEM leukemia = tested on: CCRF-CEM leukemia
786-0 renal = tested on: 786-0 renal
NCI-H226 lung = tested on: NCI-H226 lung
A549 NSCLC = tested on: A549 NSCLC
OVCAR-4 ovarian = tested on: OVCAR-4 ovarian
MDA-MB-231 breast = tested on: MDA-MB-231 breast

Row | SMILES | GI50 (SF-295 CNS) [µM] | TGI (SF-295 CNS) [µM] | GI50 (RPMI-8226 leukemia) [µM] | TGI (RPMI-8226 leukemia) [µM] | GI50 (SNB-75 CNS) [µM] | TGI (SNB-75 CNS) [µM] | GI50 (SK-MEL-28 melanoma) [µM] | TGI (SK-MEL-28 melanoma) [µM] | GI50 (CCRF-CEM leukemia) [µM] | TGI (CCRF-CEM leukemia) [µM] | GI50 (786-0 renal) [µM] | TGI (786-0 renal) [µM] | GI50 (NCI-H226 lung) [µM] | TGI (NCI-H226 lung) [µM] | GI50 (A549 NSCLC) [µM] | TGI (A549 NSCLC) [µM] | GI50 (OVCAR-4 ovarian) [µM] | TGI (OVCAR-4 ovarian) [µM] | GI50 (MDA-MB-231 breast) [µM] | TGI (MDA-MB-231 breast) [µM]
1 | Cc1cc(S(=O)(=O)Nc2n[nH]c(-c3ccc(Cl)cc3)c2C#N)c(S)cc1Cl | > 100 | > 100 | > 100 | > 100 | > 100 | > 100 | > 100 | > 100 | > 100 | > 100 | > 100 | > 100 | > 100 | > 100 | > 100 | > 100 | > 100 | > 100 | > 100 | > 100
2 | Cc1cc(C)c2c(=O)cc(-c3ccc(F)cc3)[nH]c2n1 | 50.1 | > 100 | – | > 100 | – | > 100 | – | > 100 | – | > 100 | 78.8 | > 100 | – | > 100 | – | > 100 | – | 48.3 | – | > 100
3 | Oc1c(CCl)cc(Cl)cc1Cc1cc(Cl)cc(Cc2cc(Cl)cc(CCl)c2O)c1O | 3.66 | 34.7 | 3.08 | 91.7 | 3.95 | 80.2 | 3.1 | 16.1 | – | – | 4.61 | 25.3 | 4.11 | 21.1 | 4.67 | 29.3 | 3.1 | 64.7 | 2.64 | 7.63
4 | COc1cc2c3c(n(CCCNC(C)(C)CO)c(=O)c2cc1OC)-c1cc2c(cc1C3=O)OCO2 | 0.214 | 49.1 | 0.0169 | 0.464 | 2.58 | 44 | 25.4 | > 65.6 | – | 1.58 | 0.0829 | 0.66 | 0.392 | 8.33 | 1.5 | 23.9 | 11.3 | 42.1 | 1.23 | 7
5 | CSc1nc(SC)c2cnn(-c3ccnc4cc(Cl)ccc34)c2n1 | 5.46 | > 100 | > 55.7 | > 100 | > 67.8 | > 100 | > 100 | > 100 | > 100 | > 100 | 38.6 | > 100 | 85.4 | > 100 | > 85.7 | > 100 | > 100 | > 100 | 20 | 67.4
6 | C#CCOCCCC(=O)O | – | > 100 | – | > 100 | – | > 100 | – | > 100 | – | > 100 | – | > 100 | – | > 100 | – | > 100 | – | > 100 | – | > 100
7 | CCN1C2=C(SC(=S)C1=C1SC(C(=O)c3ccccc3)=C(C(=O)c3ccccc3)S1)SC(=Nc1ccccc1)C2=O | 11.3 | > 90.7 | 2.13 | > 100 | 12.6 | > 63.4 | 26.4 | > 100 | 0.633 | > 100 | 1.53 | > 68 | 25.7 | > 100 | > 100 | > 100 | > 100 | > 100 | 13.6 | > 100
8 | CC(C)c1ccc2c(c1)CCC1C(C)(CN)CCCC21C (configuration not stated) | – | 3.34 | – | 4.3 | – | 3.19 | – | 3.11 | – | 3.92 | – | 2.89 | – | 3.4 | – | 3.37 | – | 2.72 | – | 2.95
9 | O=C(NCCCNc1cc(-c2cn(-c3ccccc3)nc2-c2cccc(O)c2)ccn1)c1ccc(F)cc1 | 1.86 | 4.58 | 1.94 | 5.55 | 5.19 | > 100 | 1.74 | 4.12 | 1.54 | > 100 | 1.49 | 3.62 | 3.7 | 12.4 | 3.65 | 20.8 | 3.79 | > 100 | 2.09 | 4.98
10 | CC(=O)N[C@@H](Cc1ccc(OP(=O)(O)O)cc1)C(=O)N[C@H]1CCC(=O)N2CCC[C@@H](C(=O)NCc3cccc4ccccc34)N2C1=O | > 25 | > 25 | > 25 | > 25 | > 25 | > 25 | > 25 | > 25 | > 25 | > 25 | > 25 | > 25 | > 25 | > 25 | > 25 | > 25 | > 25 | > 25 | > 25 | > 25
11 | NNC(=S)N/N=C/c1ccccn1 | 3.06 | > 100 | 2.44 | > 100 | 1.72 | 11.4 | 4.47 | > 100 | 2.05 | > 100 | 1.76 | > 100 | 2.41 | 13.8 | 3.14 | > 100 | 1.67 | > 100 | 0.699 | > 100
12 | Fc1ccc(-c2nn3c(COc4ccccc4Cl)nnc3s2)cc1Oc1ccccc1 | 18.9 | 50.9 | 51.1 | > 100 | 30.7 | 93.7 | 54.6 | > 100 | > 100 | > 100 | 21.3 | 46.7 | 32.7 | > 100 | 40.2 | > 100 | 72.2 | > 100 | 17.8 | 45.6
13 | CN(CCNc1ccc(C(=N)N)cc1)c1ccc(C(=N)N)cc1 | 5.8 | 60.2 | – | – | 27.6 | > 100 | 36.4 | > 100 | 88.8 | > 100 | > 100 | > 100 | 3.81 | > 100 | 0.249 | > 100 | 66 | > 100 | > 100 | > 100
